Data reported in patent publication US20250134907A1, “FUSED DIAZEPINES AS AGONISTS OF THE INSULIN-LIKE 3 (INSL3) PEPTIDE RECEPTOR RXFP2 AND METHODS OF USE THEREOF” (The United States of America,as represented by the …, priority 2022, published 2025).
Bridges are numbered along the chain shown (N, C = ends). Roman numbers before positions name the chains, in order. Where no end group is shown, it is not given here.

Legend:
[1] = biological target: T1, WT RXFP2 (Homo sapiens, UniProt Q8WXD0); experiment: HTRF cAMP assay in HEK293T cells transiently transfected with WT RXFP2; type: cell-based
T1 construct: using full-length human RXFP1 and RXFP2 receptor constructs; FLAG; expressed in transfected cells; host or cells: HEK293T (transient, Lipofectamine2000)
Source text: (§1) To further investigate the involvement of the RXFP2 extracellular and transmembrane domains in agonist activation of the receptor, two complementary chimeras were created using the RXFP1 receptor, which is not activated by the agonists of formula (I), to transiently transfect HEK293T cells and measured changes in cAMP induction using the HTRF assay.
(§2) Chimeric receptors were generated by IN-FUSION™ (Takara Bio USA, Inc., San Jose, CA) mutagenesis using full-length human RXFP1 and RXFP2 receptor constructs. Polymerase chain reaction (PCR) was performed using PfuTurbo high-fidelity DNA polymerase (Agilent Technologies, Santa Clara, CA) and overlapping primers with at least 15 bp sequence homology within the fusion site. PCR products were digested with Dpnl restricton enzyme at 37° C. overnight, run on a 0.8% agarose gel and purified using the GENEJET™ Gel extraction kit (Thermo Scientific, Waltham, MA). The purified DNA fragments were then ligated into the BamHI and XhoI pre-digested pcDNA3.1™/Zeo(+) AmpR mammalian expression vector using the In-Fusion HD enzyme premix (Clontech, Mountain View, CA) at 50° C. for 15 minutes, and the resulting product was used to transform Stellar competent cells (Takara Bio USA, Inc., San Jose, CA). The clones were fully sequenced to confirm the correct fusion of both receptor fragments. Chimera RXFP2-1 contained the extracellular domain of RXFP2 and the transmembrane domain of RXFP1. Accordingly, chimera RXFP1-2 contained the extracellular domain of RXFP1 and the transmembrane domain of RXFP2.
(§3) HEK293T cells were seeded in 6-well flat-bottom clear plates at 0.5 million cells/well in 2 mL/well of growth medium (DMEM, 10% FBS, 1× Pen/Strep) and allowed to attach overnight at 37° C. and 5% CO2. The next morning, cells were transfected with 2 μg of plasmid (chimeric receptors, WT RXFP2, or WT RXFP1) and 6 μl of Lipofectamine2000 (Invitrogen, Waltham, MA) in a total volume of 200 μl/well OPTI-MEM™ I (Thermo Fisher, Waltham, MA) reduced serum medium and allowed to incubate an additional 24 hours. The next day, transfected cells were seeded in 96-well flat-bottom opaque plates at 30,000 cells/well in 60 μL/well of serum-free DMEM medium and allowed to attach overnight at 37° C. at 5% CO2. The next morning, cells were treated with 1 μL/well of compound (25 μM-0.25 nM), 2 μM forskolin, or DMSO vehicle. Cells were also treated with 4 μL of positive control INSL3 (100-0.01 nM), Relaxin2 (100-10 nM), or vehicle (serum-free DMEM+IBMX). Plates were incubated for 1 hour at 37° C. and 5% CO2, after which kit cAMP-d2 and anti-cAMP antibody were added as previously described. Cells were incubated for 1 hour at room temperature, and then the signal was read on a CLARIOstar plate reader (BMG Labtech, Germany).

[2] = tested on: chimera RXFP2-1 (extracellular domain of RXFP2, transmembrane domain of RXFP1); experiment: HTRF cAMP assay in HEK293T cells transiently transfected with chimera RXFP2-1; type: cell-based, human
Source text: as §1, §2, §3

[3] = tested on: chimera RXFP1-2 (extracellular domain of RXFP1, transmembrane domain of RXFP2); experiment: HTRF cAMP assay in HEK293T cells transiently transfected with chimera RXFP1-2; type: cell-based, human
Source text: as §1, §2, §3

[4] = biological target: T2, RXFP2 (Homo sapiens, UniProt Q8WXD0); experiment: HTRF cAMP assay in HEK293T cells stably expressing RXFP2 (HEK-RXFP2); type: cell-based
T2 construct: expressed in transfected cells
In short: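 HEK-RXFP2 cells in serum-free DMEM were treated with compound up to 25 μM for 1 h at 37°C, and cAMP was read by HTRF immunoassay. Condition (a): 20,000 cells/well, 200 μM IBMX, normalized to 1 nM INSL3. Condition (b): 10,000 cells/well, 1 nM INSL3. Condition (c): 7,500 cells/well, no IBMX, 100 nM INSL3.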

[5] = biological target: T2, RXFP2; experiment: Luciferase cAMP assay in HEK-CRE-Luc-RXFP2 cells; type: cell-based
Description: A confirmatory cAMP assay was done to eliminate false positives using a HEK293T-CRE-Luc cell line stably transfected with RXFP2 (HEK-CRE-Luc-RXFP2), as this cell line expresses luciferase under the control of the cAMP response element (CRE). Activation of the RXFP2 receptor increases intracellular cAMP levels, inducing luciferase transcription in the nucleus. Thus, luciferase activity in these cells is proportional to cAMP accumulation. For this assay, cells were seeded in 96-well flat-bottom opaque plates at 20,000 cells/well in 60 μL/well of serum-free DMEM medium and allowed to attach overnight at 37° C., 5% CO2. The next morning, cells were treated with 1 μL/well of compound (25 μM-0.21 nM), 1 μM forskolin, or DMSO vehicle. Cells were also treated with 4 μL of INSL3 (100-0.01 nM) (Phoenix Pharmaceuticals, Burlingame, CA) or vehicle serum-free DMEM. Cells were incubated with the treatments for 3 hours at 37° C., 5% CO2, then rested 30 minutes at room temperature for equilibration, after which 65 μL/well of substrate AMPLITE™ Luciferase Reporter Gene Assay Kit (AAT Bioquest, Sunnyvale, CA) was added. Plates were incubated for 40 minutes at room temperature protected from light, and then luciferase output was read on a CLARIOstar plate reader (BMG Labtech, Germany). […]

[6] = tested on: HEK293T cells; experiment: CellTiter-Glo cytotoxicity assay in HEK293T cells; type: cell-based, human; conditions: 24 h, 25 μM and 8.3 μM
Description: (§4) Cytotoxicity induced by the compounds in HEK293T cells and primary human calvarial osteoblasts (HCO) (ScienCell Research Laboratories, San Diego, CA) were tested using the […]-GLO™ Luminescent Cell Viability Assay (Promega, Madison, WI). This is a luminescence-based assay that determines viable cells by measuring cellular adenosine triphosphate (ATP) production. The luciferase enzyme requires ATP to catalyze the conversion of beetle luciferin to oxyluciferin and light. Thus, luciferase activity is proportional to ATP accumulation in the cells. For this assay, 96-well flat-bottom opaque plates seeded with HEK293T cells at 5,000 cells/well and HCO cells at 3,000 cells/well in 100 μL/well of growth medium (DMEM, 10% FBS, 1× Penicillin/Streptomycin). After incubating overnight at 37° C., 5% CO2 to allow attachment, cells were treated with 1 μL/well of compound (25-0.1 μM) or DMSO vehicle and incubated an additional 24 hours. Then cells were equilibrated for 30 minutes at room temperature and 100 μL/well of […]-GLO™ Reagent was added. Plates were placed on an orbital shaker for 2 minutes and incubated at room temperature for 10 minutes to stabilize the luminescent signal, which was read immediately after on a CLARIOstar plate reader (BMG Labtech, Germany). […] The HEK293T results represent the means±SEM of 3 technical replicates. The HCO results represent the means±SEM of 3 independent experiments.

[7] = tested on: primary human calvarial osteoblasts (HCO); experiment: CellTiter-Glo cytotoxicity assay in HCO cells; type: cell-based; conditions: 24 h
Description: as §4

T2 sequence (Q8WXD0 whole entry): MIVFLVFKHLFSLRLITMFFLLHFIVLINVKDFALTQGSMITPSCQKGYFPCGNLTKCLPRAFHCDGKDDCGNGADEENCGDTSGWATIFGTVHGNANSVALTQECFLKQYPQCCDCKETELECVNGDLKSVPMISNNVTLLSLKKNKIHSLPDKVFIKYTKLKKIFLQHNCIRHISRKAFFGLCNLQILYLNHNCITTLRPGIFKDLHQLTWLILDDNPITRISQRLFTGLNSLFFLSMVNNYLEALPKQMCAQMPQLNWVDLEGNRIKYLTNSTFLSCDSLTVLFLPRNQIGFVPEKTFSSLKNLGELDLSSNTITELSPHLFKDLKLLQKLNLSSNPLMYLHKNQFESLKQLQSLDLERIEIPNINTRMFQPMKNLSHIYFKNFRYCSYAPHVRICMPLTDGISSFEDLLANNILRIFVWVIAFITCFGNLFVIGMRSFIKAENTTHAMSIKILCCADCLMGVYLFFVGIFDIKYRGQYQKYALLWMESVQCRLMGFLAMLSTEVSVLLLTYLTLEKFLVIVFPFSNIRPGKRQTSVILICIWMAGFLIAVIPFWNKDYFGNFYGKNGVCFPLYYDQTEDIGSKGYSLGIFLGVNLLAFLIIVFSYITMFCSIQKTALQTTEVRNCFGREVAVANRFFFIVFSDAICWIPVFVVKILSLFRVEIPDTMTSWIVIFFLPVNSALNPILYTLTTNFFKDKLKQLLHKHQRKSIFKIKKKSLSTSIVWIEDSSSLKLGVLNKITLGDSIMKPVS
T1 sequence (Q8WXD0 whole entry): as above

Row | Compound | Emax ([1]; HEK-293T, normalized to 2 μM forskolin cAMP response as 100% activity) [%] | EC50 ([1]; read-out: EC50 (μM or nM)) [µM] | cAMP response of chimera RXFP2-1 [2] | Emax ([2]; RXFP2-1 chimera, normalized to 2 μM forskolin cAMP response as 100% activity) [%] | EC50 ([2]; RXFP2-1 chimera, read-out: EC50 (μM or nM)) [µM] | cAMP response of chimera RXFP1-2 [3] | EC50 ([4]; condition (b): 10,000 cells/well, IBMX 200 μM) [nM] | % EFF vs. 1 nM INSL3 (b) ([4]; condition (b): 10,000 cells/well, IBMX 200 μM, normalized to 1 nM INSL3 cAMP response) | EC50 ([4]; condition (c): 7,500 cells/well, IBMX omitted) [nM] | % EFF vs. 100 nM INSL3 (c) ([4]; condition (c): 7,500 cells/well, IBMX omitted, normalized to 100 nM INSL3 cAMP response) | EC50 ([5]; 3 h treatment, 25 μM-0.21 nM) [nM] | Emax (% Eff vs. 10 nM INSL3) ([5]; relative to 10 nM INSL3 response) [%] | cytotoxicity [6] | cytotoxicity ([7]; 25 μM) | cytotoxicity ([7]; lower concentrations than 25 μM)
1 | I: PTPEMREKLCGHHFVRALVRVCGGPRWSTEA / II: AAATNPARYCCLSGCTQQDLLTLCPY (disulfide I:10-II:11, I:22-II:24, II:10-II:15) [INSL3] | 78.4 ± 11.2 | 0.0005 ± 0.00035 | levels comparable to WT RXFP2 | 92.30 ± 21.82 | 0.00074 ± 0.00061 | did not respond |  |  |  |  |  |  |  |  | 
2 | Cc1cc(-c2ccc3c(c2)C(=O)N2CCN(C(=O)COc4ccc(OC(F)(F)F)cc4Br)C[C@H]2C(=O)N3)cc(C(F)(F)F)c1 [Example 153, (S)-2-(2-(2-bromo-4-(trifluoromethoxy)phenoxy)acetyl)-8-(3-methyl-5-(trifluoromethyl)phenyl)-1,3,4,12a-tetrahydrobenzo[e]pyrazino[1,2-a][1,4]diazepine-6,12 (2H, 11H)-dione] |  |  |  |  |  |  | 23.6 to 50.2 | 149.80-150.94% | 101 to 319 | 45.16-86.79% | 24.6 | 109.6 | some toxicity | minimal toxicity | not toxic
